Results published in US8748610B2, “Compounds as TRPV1 antagonists, pharmaceutical compositions and medical uses thereof” (FL Therapeutics LLC, priority 2009, dated 2014).

Target: T1, recombinant human TRPV1 (Homo sapiens, UniProt Q8NER1)
T1 construct: expressed in transfected cells
Test: FLIPR based Ca2+ influx assay, capsaicin-induced, TRPV1.CHO cells
Assay type: cell-based
Conditions: CHO-K1 cells stably expressing recombinant human TRPV1; 30 nM capsaicin (~EC80); 15 mins pre-incubation
Method: The functional activity of compounds at the TRPV1 receptor was determined using a Molecular Devices FLIPR based Ca^2+ influx assay, employing a Ca^2+ sensitive fluorescent dye and a CHO-K1 cell line, stably expressing recombinant human TRPV1, under the control of a CMV promoter (TRPV1.CHO cells). TRPV1.CHO cells were routinely maintained at 37° C./5% CO2 in normal growth medium (Dulbecco's Modified Eagles medium (DMEM/NUT.MDC.F-12 GLUTAMAX-1 (1:1) with PYRIDOXINE) supplemented with 10% fetalclone II serum and 0.4 mg/ml G418, (all Invitrogen).
Test compounds were prepared as 10 mM stock solution in DMSO and tested for activity over several log units (ranging […]-100 pM). Serial dilutions (half-log dose response) were prepared in 100% DMSO with further dilutions in aqueous assay buffer to final assay concentration for IC50 determination (1% DMSO final).
TRPV1.CHO cells were seeded (10,000 cells/well) in a 384 clear bottom plate (Costar) 24 hr prior to assay. […]
TRPV1 responses were assessed following addition, in the FLIPR, of 12.5 μl/well of test compound (to give appropriate final concentration) for 15 mins time followed by 12.5 μl/well of 120 nM capsaicin (agonist) in TRPV1 buffer to give a final concentration of capsaicin of 30 nM (˜EC80 concentration). Ca^2+ influx was assessed by measurement of fluorescence. Baseline fluorescence responses were measured for approximately 10 s prior to addition of capsaicin. Increases in fluorescence emission following capsaicin addition were measured for a further 110 s. Responses were recorded as Max-Min fluorescence. Antagonist induced inhibition of TRPV1 mediated increases in intracellular [Ca^2+] was assessed relative to wells on the same plate to which capsaicin was added in the absence of antagonist (i.e pre-incubation in buffer alone).

T1 sequence (Q8NER1 whole entry): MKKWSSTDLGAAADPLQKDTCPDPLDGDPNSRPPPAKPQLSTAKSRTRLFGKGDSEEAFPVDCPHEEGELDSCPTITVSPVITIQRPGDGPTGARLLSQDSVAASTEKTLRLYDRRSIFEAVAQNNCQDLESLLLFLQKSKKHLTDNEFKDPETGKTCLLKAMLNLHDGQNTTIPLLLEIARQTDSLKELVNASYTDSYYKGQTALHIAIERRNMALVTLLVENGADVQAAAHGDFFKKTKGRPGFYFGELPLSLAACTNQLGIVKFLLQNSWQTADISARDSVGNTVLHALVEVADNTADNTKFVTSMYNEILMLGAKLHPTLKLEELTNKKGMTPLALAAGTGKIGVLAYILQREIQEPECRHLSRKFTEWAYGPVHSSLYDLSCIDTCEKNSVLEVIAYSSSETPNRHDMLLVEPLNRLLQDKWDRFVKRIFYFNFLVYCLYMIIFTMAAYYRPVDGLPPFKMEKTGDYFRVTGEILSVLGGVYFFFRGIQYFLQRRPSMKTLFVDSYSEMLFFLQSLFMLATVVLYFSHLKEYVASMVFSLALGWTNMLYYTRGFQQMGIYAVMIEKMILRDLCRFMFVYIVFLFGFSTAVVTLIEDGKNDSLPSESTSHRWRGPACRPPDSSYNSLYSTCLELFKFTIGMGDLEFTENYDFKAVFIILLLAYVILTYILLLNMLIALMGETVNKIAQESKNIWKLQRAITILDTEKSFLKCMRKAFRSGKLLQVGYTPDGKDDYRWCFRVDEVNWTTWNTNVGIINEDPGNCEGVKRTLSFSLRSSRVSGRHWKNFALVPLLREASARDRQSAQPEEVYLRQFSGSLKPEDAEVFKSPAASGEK

Row | IC50 | SMILES
1 | 0.5 nM | C[Si](C)(C)c1ccc(NC(=O)N2CCN(c3ncccc3Cl)CC2)cc1 [A-01, 4(3-chloropyridin-2-yl)-N-(4-(trimethylsilyl)phenyl)piperazine-1-carboxamide]
2 | 5.4 nM | C[Si](C)(C)c1ccc(NC(=O)c2ccc(-c3ncccc3C(F)(F)F)cc2)cc1 [A-04, 4-(3-(trifluoromethyl)pyridin-2-yl)-N-(4-(trimethylsilyl)phenyl)benzamide]
3 | 2.3 nM | C[Si](C)(C)c1ccc(NC(=O)C2=CCN(c3ncccc3Cl)CC2)cc1 [A-05, 1-(3-chloropyridin-2-yl)-N-(4-(trimethylsilyl)phenyl)-1,2,3,6-tetrahydropyridine-4-carboxamide]
